Assay results taken from patent US20090163551A1, “Compositions and Methods for Treating Diseases” (Novartis AG, priority 2006, published 2009).
“Also recorded” adds a separate entry of the source. Structures can show the parent of a compound that is named as a salt.

Experiments:
[1] = tested on: circular muscle strips from the gastric antrum; assay: Contractile responses to EFS of enteric nerves in antral muscle strips of pretreated indomethacin rats; format: in vivo, rat; settings: for Regression Analysis Slope: linear regression of EFS (0.5 ms, 1-15 Hz) frequency-response, indomethacin-treated rats, mean ± SEM, 5-6 rats per group
[2] = tested on: smooth muscle muscarinic receptors; assay: Carbachol concentration-response curve in antral circular muscle strips; format: cell-based, rat; settings: carbachol contraction
enteric nerves = format: cell-based, rat
[3] = tested on: circular muscle strips from the gastric antrum; assay: Contractile response to KCl (80 mM) in antral circular muscle strips of pretreated indomethacin rats; format: in vivo, rat; settings: strips from indomethacin-treated rats pretreated with tegaserod 1 mg/kg, omeprazole 20 mg/kg, vs vehicle
[4] = tested on: rat model of indomethacin-induced gastric mucosal ulceration; assay: Indomethacin-induced gastric mucosal ulceration (ulceration index); format: in vivo; settings: rats; tegaserod 1 mg/kg, omeprazole 20 mg/kg i.p. b.i.d. one day before and 30 min prior to indomethacin 50 mg/kg intragastric; 6 h post-indomethacin; vs vehicle
Description: Male Sprague-Dawley rats (Charles River, Laboratories, Wilmington, Mass.) weighing 250-300 g were housed two in a cage at standard conditions (21-23° C., controlled humidity, 12 hour light/dark cycle). The animals were allowed to acclimate for one week prior to initiation of drug treatment. The experimental procedures were approved by the Animal Care and Use Committees at the V.A. Medical Center and the University of Oklahoma Health Science Center, Oklahoma City, Okla.
(§1) Prior to the experiment the rats were fasted overnight with free access to water. On the day of experiment the rats received intragastric gavage of 50 mg/kg indomethacin dissolved in 2% NaCO3 and brought to a volume of 1.5 mL in saline (pH 6.8). Indomethacin was given at 7:30 A.M. and the animals were then placed in their home cage with free access to food and water. The rats were euthanized 6 h post-indomethacin infusion, the stomach was isolated and placed in Ca^2+-free Krebs buffer aerated with 95% O2 and 5% CO2.
Drugs were prepared fresh for each experiment and stored at 4° C. between treatments. […]
(§2) The stomach was cut along the small curvature, cleansed of ingested food and the fundus was separated from the glandular portion of the stomach. […] The total length of hemorrhagic lesions, which were approximately 1 mm wide, was measured and served as an index of ulceration. […]

[5] = tested on: circular muscle strips from the gastric antrum; assay: Contractile responses to carbachol in antral circular muscle strips of pretreated indomethacin rats; format: in vivo, rat; settings: strips from indomethacin-treated rats pretreated with tegaserod 1 mg/kg, omeprazole 20 mg/kg; vs vehicle
[6] = tested on: myeloperoxidase (MPO) activity; assay: Mucosal myeloperoxidase activity after indomethacin; format: in vivo, rat; settings: rats; tegaserod 1 mg/kg, omeprazole 20 mg/kg i.p. pretreatment; glandular stomach 6 h after indomethacin 50 mg/kg
Description: as §1
Drugs were prepared fresh for each experiment and stored at 4° C. between treatments. […] A separate control group received treatment with propylene glycol only. […]
as §2
Following dissection, the mucosal tissue was snap-frozen in liquid nitrogen and stored at −80° C. and MPO activity was assayed simultaneously. […] MPO activity was expressed as equivalent to the activity of the relative standard (ng of HRP) converting the same amount of TMB substrate for 10 min at room temperature. […]

[7] = tested on: circular muscle strips from the gastric antrum; assay: Contractile responses to 5-HT in antral circular muscle strips of pretreated indomethacin rats; format: in vivo, rat; settings: strips from indomethacin-treated rats pretreated with tegaserod 1 mg/kg, omeprazole 20 mg/kg; vs vehicle
5-HT receptors = assay: 5-HT concentration-response curve in antral circular muscle strips; format: cell-based, rat; settings: 5-HT contraction
[8] = strips from vehicle pretreated rats receiving indomethacin
[9] = EFS 0.5 ms, 1-15 Hz, strips from indomethacin-treated rats pretreated with tegaserod 1 mg/kg, omeprazole 20 mg/kg
[10] = second group not named in the sentence (indomethacin-treated rats receiving vehicle)

SMILES: COc1ccc2[nH]c([S+]([O-])Cc3ncc(C)c(OC)c3C)nc2c1 (stereo not drawn) [Omeprazole, omeprazole]
- Regression Analysis Slope [1]: 78.8 ± 9.5

SMILES: C[N+](C)(C)CCOC(N)=O.[Cl-] [carbachol, carbamylcholine chloride]
- Hill slope ([2]; strips from naïve rats): 1.07
- Hill slope [2, 8]: 1.11
- log EC50 [2, 8]: −7.32

SMILES: NC1=N[C@H](O)[C@H]2[C@H]3O[C@]4(O)O[C@@H]([C@@H](O)[C@@]2(N1)[C@@H]4O)[C@]3(O)CO [tetrodotoxin]
- inhibitory and excitatory responses to EFS (enteric nerves): abolished

SMILES: CCCCCNC(=N)NN=Cc1c[nH]c2ccc(OC)cc12 [Tegaserod, 3-(5-methoxy-1H-indol-3-ylmethylene)-N-pentylcarbazimidamide]
- amplitude of KCl-induced contractions [3]: showed a tendency to prevent the development of hypercontractile responses to KCl, however in the effect of neither of the drugs reached statistical significance
- formation of gastric lesions (ulceration index) [4]: reduced gastric ulceration; also recorded: significantly reduced the formation of gastric lesions
- increase of contractile responses to EFS [1, 9]: prevented the increase of contractile responses to EFS
- linear frequency-response relationship of EFS contractile responses [1, 9]: preserved the linear frequency-response relationship; also recorded: protected the linear increase in the amplitude of contractile responses
- Indomethacin-induced hypercontractility (KCl, carbachol, 5-HT, EFS; overall statement) ([1]; antral circular muscle strips, tegaserod 1 mg/kg, omeprazole 20 mg/kg pretreatment): significantly attenuated
- Regression Analysis Slope [1]: 51.9 ± 5.1
- maximal carbachol-induced contraction [5]: not significantly different
- mucosal MPO activity [6]: reduced gastric ulceration and mucosal inflammation; also recorded: inhibited MPO activity to levels that were not significantly different from those in naïve animals
- amplitude of the maximal response to 5-HT [7]: significant reduction

SMILES: NCCc1c[nH]c2ccc(O)cc12 [5-HT, 5-hydroxytryptamine creatinine sulfate]
- Hill slope (5-HT receptors; [10]): 0.65
- log EC50 (5-HT receptors; [10]): 6.839
- Hill slope (5-HT receptors; strips from naïve rats): 0.48
- log EC50 (5-HT receptors; strips from naïve rats): 6.299
